Measurements published in patent US12685735B2 (Foghorn Therapeutics Inc., priority 2020, dated 2026).

Experiments:
BRG-1 = BRG-1 (Homo sapiens, UniProt P51532); experiment: ATPase catalytic activity assay of BRG-1 (ADP-Glo); assay type: biochemical; settings: ATPase catalytic activity, ADP-Glo; for IC50: read-out: BRG1 IC50 (μM)*; for Emax: read-out: BRG1 Max % Inhibition
In short: (§1)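 Measurement is luminescence, reflecting ADP produced by ATPase turnover. The two-step ADP-Glo detection consists of ATP depletion for 40 min and ADP-to-ATP conversion with luciferase for 60 min, both at room temperature.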

BRM = BRM (Homo sapiens, UniProt P51531); experiment: ATPase catalytic activity assay of BRM (ADP-Glo); assay type: biochemical; settings: for IC50: read-out: BRM IC50 (μM)*
In short: as §1

Sequence of BRM (P51531 whole entry): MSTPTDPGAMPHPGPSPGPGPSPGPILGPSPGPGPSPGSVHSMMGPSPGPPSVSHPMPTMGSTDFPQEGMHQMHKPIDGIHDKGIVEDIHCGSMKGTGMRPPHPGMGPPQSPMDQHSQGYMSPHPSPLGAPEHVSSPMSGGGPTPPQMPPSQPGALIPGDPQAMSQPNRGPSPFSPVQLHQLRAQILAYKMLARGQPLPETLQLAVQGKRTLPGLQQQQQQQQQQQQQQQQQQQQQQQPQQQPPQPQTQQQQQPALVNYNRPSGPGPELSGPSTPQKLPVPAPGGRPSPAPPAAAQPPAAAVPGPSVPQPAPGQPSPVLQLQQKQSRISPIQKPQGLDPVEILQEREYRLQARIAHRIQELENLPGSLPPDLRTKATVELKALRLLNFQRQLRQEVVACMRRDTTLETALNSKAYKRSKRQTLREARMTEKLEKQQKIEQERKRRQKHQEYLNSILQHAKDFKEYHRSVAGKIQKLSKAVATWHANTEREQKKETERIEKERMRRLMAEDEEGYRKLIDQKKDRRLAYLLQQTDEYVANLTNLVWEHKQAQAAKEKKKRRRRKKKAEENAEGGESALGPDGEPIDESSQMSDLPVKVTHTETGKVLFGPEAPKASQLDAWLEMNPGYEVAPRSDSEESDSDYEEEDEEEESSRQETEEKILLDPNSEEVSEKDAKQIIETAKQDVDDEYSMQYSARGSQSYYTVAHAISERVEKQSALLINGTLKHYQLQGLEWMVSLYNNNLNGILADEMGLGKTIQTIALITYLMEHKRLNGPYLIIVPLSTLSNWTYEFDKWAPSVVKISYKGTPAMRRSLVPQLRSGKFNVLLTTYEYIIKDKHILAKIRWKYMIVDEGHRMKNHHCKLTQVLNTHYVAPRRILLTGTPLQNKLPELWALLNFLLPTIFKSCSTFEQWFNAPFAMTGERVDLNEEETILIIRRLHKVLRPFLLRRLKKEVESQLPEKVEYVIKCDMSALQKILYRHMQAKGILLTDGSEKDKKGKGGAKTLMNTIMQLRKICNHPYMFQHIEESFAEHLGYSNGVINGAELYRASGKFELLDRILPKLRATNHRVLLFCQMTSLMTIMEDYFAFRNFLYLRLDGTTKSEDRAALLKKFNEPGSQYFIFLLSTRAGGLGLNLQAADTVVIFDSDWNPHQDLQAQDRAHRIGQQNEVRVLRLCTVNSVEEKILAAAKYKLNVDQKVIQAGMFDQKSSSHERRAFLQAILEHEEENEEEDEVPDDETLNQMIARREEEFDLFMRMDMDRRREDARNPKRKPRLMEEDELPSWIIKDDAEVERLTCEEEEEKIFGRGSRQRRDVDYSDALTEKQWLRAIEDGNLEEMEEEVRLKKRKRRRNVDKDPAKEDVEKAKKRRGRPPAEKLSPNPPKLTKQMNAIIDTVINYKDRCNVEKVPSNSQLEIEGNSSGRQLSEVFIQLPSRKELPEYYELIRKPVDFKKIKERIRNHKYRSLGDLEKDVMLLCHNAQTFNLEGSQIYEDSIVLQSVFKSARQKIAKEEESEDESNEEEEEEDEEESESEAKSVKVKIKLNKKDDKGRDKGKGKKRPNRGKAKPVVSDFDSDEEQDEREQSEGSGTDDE
Sequence of BRG-1 (P51532 whole entry): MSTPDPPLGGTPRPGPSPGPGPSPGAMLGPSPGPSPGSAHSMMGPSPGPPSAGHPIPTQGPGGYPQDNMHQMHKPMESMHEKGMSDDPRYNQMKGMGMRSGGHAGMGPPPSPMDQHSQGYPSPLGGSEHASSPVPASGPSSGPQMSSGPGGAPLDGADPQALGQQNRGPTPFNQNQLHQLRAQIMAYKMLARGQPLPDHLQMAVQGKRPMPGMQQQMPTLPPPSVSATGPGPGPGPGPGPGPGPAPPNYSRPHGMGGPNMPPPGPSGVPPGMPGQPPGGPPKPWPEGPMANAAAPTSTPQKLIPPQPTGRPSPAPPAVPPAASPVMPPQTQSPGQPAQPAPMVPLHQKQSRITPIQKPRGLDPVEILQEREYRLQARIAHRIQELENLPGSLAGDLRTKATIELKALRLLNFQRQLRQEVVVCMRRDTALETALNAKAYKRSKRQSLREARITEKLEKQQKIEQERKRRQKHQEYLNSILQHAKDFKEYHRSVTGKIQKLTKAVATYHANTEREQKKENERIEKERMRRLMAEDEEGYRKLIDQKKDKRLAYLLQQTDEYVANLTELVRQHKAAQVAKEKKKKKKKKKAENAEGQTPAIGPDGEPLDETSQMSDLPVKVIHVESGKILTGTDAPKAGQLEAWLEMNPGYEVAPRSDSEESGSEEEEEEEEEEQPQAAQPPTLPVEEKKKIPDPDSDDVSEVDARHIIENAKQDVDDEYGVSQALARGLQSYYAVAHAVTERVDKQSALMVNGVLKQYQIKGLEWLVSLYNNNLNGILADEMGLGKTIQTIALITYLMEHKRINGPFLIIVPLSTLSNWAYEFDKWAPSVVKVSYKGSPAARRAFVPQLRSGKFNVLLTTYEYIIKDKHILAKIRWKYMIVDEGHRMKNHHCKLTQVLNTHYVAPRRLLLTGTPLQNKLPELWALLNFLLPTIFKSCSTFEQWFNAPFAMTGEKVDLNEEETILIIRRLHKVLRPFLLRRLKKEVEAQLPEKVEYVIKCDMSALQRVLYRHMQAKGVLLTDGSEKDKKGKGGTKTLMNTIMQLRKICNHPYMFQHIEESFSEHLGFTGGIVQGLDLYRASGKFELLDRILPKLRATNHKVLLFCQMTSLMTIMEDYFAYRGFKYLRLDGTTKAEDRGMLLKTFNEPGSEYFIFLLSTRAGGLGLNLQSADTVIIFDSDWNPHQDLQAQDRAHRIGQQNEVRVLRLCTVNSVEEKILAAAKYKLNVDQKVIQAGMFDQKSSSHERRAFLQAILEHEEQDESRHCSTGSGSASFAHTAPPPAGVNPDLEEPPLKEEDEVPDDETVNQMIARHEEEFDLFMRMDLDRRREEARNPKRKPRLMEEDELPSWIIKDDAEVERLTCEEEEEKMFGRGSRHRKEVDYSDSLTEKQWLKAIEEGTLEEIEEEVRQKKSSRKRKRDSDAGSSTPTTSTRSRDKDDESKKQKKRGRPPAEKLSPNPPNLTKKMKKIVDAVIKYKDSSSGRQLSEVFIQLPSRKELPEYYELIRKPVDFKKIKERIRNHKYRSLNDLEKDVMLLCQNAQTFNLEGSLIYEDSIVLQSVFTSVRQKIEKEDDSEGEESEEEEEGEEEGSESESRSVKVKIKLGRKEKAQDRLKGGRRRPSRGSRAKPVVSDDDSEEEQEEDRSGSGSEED

Compound | IC50 (BRG-1) [µM] | Emax (BRG-1) [%] | BRM Max % Inhibition (BRM) [%] | IC50 (BRM) [µM]
COC(=O)N1CCC(c2csc(NC(=O)CNC(=O)c3ccc4c(c3)[C@](C)(F)COC4)n2)CC1 [Compound 281, methyl (S)-4-(2-(2-(4-fluoro-4-methylisochromane-6-carboxamido)acetamido)thiazol-4-yl)piperidine-1-carboxylate] | 1 to 5 | > 90 | >90 | 0.1 to 1
C[C@@H]1CN(c2cccc(-c3csc(NC(=O)CNC(=O)c4ccc5c(c4)C(C)(C)COC5)n3)n2)C[C@H](C)O1 [Compound 282, N-(2-((4-(6-((cis)-2,6-dimethylmorpholino)pyridin-2-yl)thiazol-2-yl)amino)-2-oxoethyl)-4,4-dimethylisochromane-6-carboxamide] | 0.1 to 1 | > 95 | >95 | < 0.1
C[C@@H]1CN(c2cccc(-c3csc(NC(=O)CNC(=O)c4cccc([C@]5(C(F)F)CCOC5)c4)n3)c2)C[C@H](C)O1 [Compound 285] | 0.1 to 1 | > 95 | >95 | < 0.1
C[C@@H]1CN(c2cccc(-c3csc(NC(=O)CNC(=O)c4cccc([C@@]5(C(F)F)CCOC5)c4)n3)c2)C[C@H](C)O1 [Compound 286, 3-((S)-3-(difluoromethyl)tetrahydrofuran-3-yl)-N-(2-((4-(3-((cis)-2,6-dimethylmorpholino)phenyl)thiazol-2-yl)amino)-2-oxoethyl)benzamide] | 1 to 5 | > 95 | >95 | < 0.1
CN1C[C@](C)(C#N)c2cc(C(=O)NCC(=O)Nc3nc(-c4cc(F)cc(N5CCC5)c4)cs3)ccc21 [Compound 288, (R)-N-(2-((4-(3-(azetidin-1-yl)-5-fluorophenyl)thiazol-2-yl)amino)-2-oxoethyl)-3-cyano-1,3-dimethylindoline-5-carboxamide] | > 5 | > 75 | >75 | 0.1 to 1
CN1C[C@@](C)(C#N)c2cc(C(=O)NCC(=O)Nc3nc(-c4cc(F)cc(N5CCC5)c4)cs3)ccc21 [Compound 289, (S)-N-(2-((4-(3-(azetidin-1-yl)-5-fluorophenyl)thiazol-2-yl)amino)-2-oxoethyl)-3-cyano-1,3-dimethylindoline-5-carboxamide] | < 0.1 | > 95 | >95 | < 0.1
C[C@@H]1CN(c2cccc(-c3csc(NC(=O)CNC(=O)c4cccc([C@]5(C(F)F)CCCO5)c4)n3)c2)C[C@H](C)O1 [Compound 291, 3-((S)-2-(difluoromethyl)tetrahydrofuran-2-yl)-N-(2-((4-(3-((cis)-2,6-dimethylmorpholino)phenyl)thiazol-2-yl)amino)-2-oxoethyl)benzamide] | > 5 | > 90 | >90 | 0.1 to 1
C[C@@]1(C#N)COCc2ccc(C(=O)NCC(=O)Nc3nc(-c4cccc([C@@]56CCOC[C@@H]5C6)n4)cs3)cc21 [Compound 292, (R)-N-(2-((4-(6-((1R,6S)-3-oxabicyclo[4.1.0]heptan-6-yl)pyridin-2-yl)thiazol-2-yl)amino)-2-oxoethyl)-4-cyano-4-methylisochromane-6-carboxamide] | 0.1 to 1 | > 95 | >95 | < 0.1
C[C@@]1(C#N)COCc2ccc(C(=O)NCC(=O)Nc3nc(-c4cccc([C@]56CCOC[C@H]5C6)n4)cs3)cc21 [Compound 293, (R)-N-(2-((4-(6-((1S,6R)-3-oxabicyclo[4.1.0]heptan-6-yl)pyridin-2-yl)thiazol-2-yl)amino)-2-oxoethyl)-4-cyano-4-methylisochromane-6-carboxamide] | 0.1 to 1 | > 95 | >95 | < 0.1
C[C@@H]1CN(c2cccc(-c3csc(NC(=O)CNC(=O)c4ccc5c(c4)CCCOC5)n3)n2)C[C@H](C)O1 [Compound 296, N-(2-((4-(6-((cis)-2,6-dimethylmorpholino)pyridin-2-yl)thiazol-2-yl)amino)-2-oxoethyl)-1,3,4,5-tetrahydrobenzo[c]oxepine-7-carboxamide] | < 0.1 | > 95 | >95 | < 0.1
C[C@@]1(F)COCc2ccc(C(=O)NCC(=O)Nc3nc(C4CCOCC4)cs3)cc21 [Compound 297, (S)-4-fluoro-4-methyl-N-(2-oxo-2-((4-(tetrahydro-2H-pyran-4-yl)thiazol-2-yl)amino)ethyl)isochromane-6-carboxamide] | 1 to 5 | > 85 | >95 | 0.1 to 1
C[C@@H]1CN(c2cccc(-c3csc(NC(=O)CNC(=O)c4ccc5c(c4)C4(COC5)COC4)n3)n2)C[C@H](C)O1 [Compound 300, N-(2-((4-(6-((cis)-2,6-dimethylmorpholino)pyridin-2-yl)thiazol-2-yl)amino)-2-oxoethyl)spiro[isochromane-4,3′-oxetane]-6-carboxamide] | 0.1 to 1 | > 95 | >95 | < 0.1
C[C@@H]1CN(c2cccc(-c3csc(NC(=O)CNC(=O)c4cccc(C5(F)COCC5O)c4)n3)n2)C[C@H](C)O1 (stereo partly drawn) [Compound 304, N-(2-((4-(6-((cis)-2,6-dimethylmorpholino)pyridin-2-yl)thiazol-2-yl)amino)-2-oxoethyl)-3-(3-fluoro-4-hydroxytetrahydrofuran-3-yl)benzamide] | 1 to 5 | > 95 | >95 | 0.1 to 1
C[C@@H]1CN(c2cccc(-c3csc(NC(=O)CNC(=O)c4cccc(C5(C(F)F)CCCO5)c4)n3)c2)C[C@H](C)O1 (stereo partly drawn) [Compound 306, 3-(2-(difluoromethyl)tetrahydrofuran-2-yl)-N-(2-((4-(3-((cis)-2,6-dimethylmorpholino)phenyl)thiazol-2-yl)amino)-2-oxoethyl)benzamide] | 1 to 5 | > 95 | >95 | 0.1 to 1
C[C@@H]1CN(c2cccc(-c3csc(NC(=O)CNC(=O)c4ccc5c(c4)C(C)(C#N)CNC5)n3)c2)C[C@H](C)O1 (stereo partly drawn) [Compound 310, 4-cyano-N-(2-((4-(3-((cis)-2,6-dimethylmorpholino)phenyl)thiazol-2-yl)amino)-2-oxoethyl)-4-methyl-1,2,3,4-tetrahydroisoquinoline-6-carboxamide] | 0.1 to 1 | > 95 | >95 | < 0.1

Second part, the compound after the results:

IC50 (BRG-1) [µM] | Emax (BRG-1) [%] | BRM Max % Inhibition (BRM) [%] | IC50 (BRM) [µM] | Compound
0.1 to 1 | > 95 | >95 | < 0.1 | C[C@@]1(C#N)COCc2ccc(C(=O)NCC(=O)Nc3nc(-c4cccc([C@@]56CCOC[C@@H]5C6)c4)cs3)cc21 [Compound 294, (R)-N-(2-((4-(3-((1R,6S)-3-oxabicyclo[4.1.0]heptan-6-yl)phenyl)thiazol-2-yl)amino)-2-oxoethyl)-4-cyano-4-methylisochromane-6-carboxamide]
0.1 to 1 | > 95 | >95 | < 0.1 | C[C@@]1(C#N)COCc2ccc(C(=O)NCC(=O)Nc3nc(-c4cccc([C@]56CCOC[C@H]5C6)c4)cs3)cc21 [Compound 295, (R)-N-(2-((4-(3-((1S,6R)-3-oxabicyclo[4.1.0]heptan-6-yl)phenyl)thiazol-2-yl)amino)-2-oxoethyl)-4-cyano-4-methylisochromane-6-carboxamide]
0.1 to 1 | > 95 | >95 | < 0.1 | C[C@@]1(F)COCc2ccc(C(=O)NCC(=O)Nc3nc(-c4ccccc4)cs3)cc21 [Compound 303, (S)-4-fluoro-4-methyl-N-(2-oxo-2-((4-phenylthiazol-2-yl)amino)ethyl)isochromane-6-carboxamide]
0.1 to 1 | > 95 | >95 | < 0.1 | C[C@@]1(C#N)COCc2ccc(C(=O)NCC(=O)Nc3nc(-c4cccc(C56CCOCC5C6)c4)cs3)cc21 (stereo partly drawn) [Compound 305, (R)-N-(2-((4-(3-(3-oxabicyclo[4.1.0]heptan-6-yl)phenyl)thiazol-2-yl)amino)-2-oxoethyl)-4-cyano-4-methylisochromane-6-carboxamide]
0.1 to 1 | > 95 | >95 | < 0.1 | COc1cccc(-c2csc(NC(=O)[C@H](C)NC(=O)c3ccc4c(c3)[C@](C)(F)COC4)n2)c1 [Compound 309, (S)-4-fluoro-N-((S)-1-((4-(3-methoxyphenyl)thiazol-2-yl)amino)-1-oxopropan-2-yl)-4-methylisochromane-6-carboxamide]
1 to 5 | > 95 | >95 | 0.1 to 1 | COc1cccc(-c2csc(NC(=O)CNC(=O)c3ccc4c(c3)C(C)(C#N)CNC4)n2)c1 (centres unmarked) [Compound 311, 4-cyano-N-(2-((4-(3-methoxyphenyl)thiazol-2-yl)amino)-2-oxoethyl)-4-methyl-1,2,3,4-tetrahydroisoquinoline-6-carboxamide]
0.1 to 1 | > 95 | >95 | < 0.1 | COc1cccc(-c2csc(NC(=O)CNC(=O)c3ccc4c(c3)[C@](C)(F)COC4)n2)c1 [Compound 312, (S)-4-fluoro-N-(2-((4-(3-methoxyphenyl)thiazol-2-yl)amino)-2-oxoethyl)-4-methylisochromane-6-carboxamide]
1 to 5 | > 90 | >90 | 0.1 to 1 | COc1cccc(-c2csc(NC(=O)CNC(=O)c3ccc4c(c3)C(C)(O)COC4)n2)c1 (centres unmarked) [Compound 313, 4-hydroxy-N-(2-((4-(3-methoxyphenyl)thiazol-2-yl)amino)-2-oxoethyl)-4-methylisochromane-6-carboxamide]
